Data: patent EP4671240A1, “SALT CONTAINING AROMATIC RING DERIVATIVE ANTAGONIST, PREPARATION METHOD THEREFOR, AND APPLICATION THEREOF” (Jiangsu Hansoh Pharmaceutical Group Co., Ltd., priority 2023, dated 2024)

Biological target: T1, AT1 receptors (Homo sapiens, UniProt P30556)
T1 construct: host or cells: HEK293
T1 sequence (P30556 1-359): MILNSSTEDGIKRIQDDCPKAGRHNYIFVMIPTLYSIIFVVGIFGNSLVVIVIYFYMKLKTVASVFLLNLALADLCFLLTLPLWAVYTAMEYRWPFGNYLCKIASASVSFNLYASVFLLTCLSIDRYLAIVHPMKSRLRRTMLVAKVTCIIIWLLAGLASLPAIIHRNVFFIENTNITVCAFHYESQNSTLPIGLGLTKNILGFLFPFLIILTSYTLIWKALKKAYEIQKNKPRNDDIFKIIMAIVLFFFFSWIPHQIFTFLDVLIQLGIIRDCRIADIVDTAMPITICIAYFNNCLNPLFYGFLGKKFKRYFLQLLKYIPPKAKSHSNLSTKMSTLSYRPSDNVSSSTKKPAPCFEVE
Assay: effect on calcium current in cells stably expressing AT1 receptors (HEK293-AT1, FLIPR, antagonist)
Assay type: cell-based
Conditions: 11 concentration points 10 uM to 0.17 nM
From the text: Test example 1. Determination of the effect of the compounds of the present invention on calcium current in cells stably expressing AT1 receptors 1. Experimental objective: To test the antagonistic effect of compounds on HEK293-AT1 cell activity 2. Experimental instruments and reagents: 2.1 Instruments: • 384-well assay plate (Corning: 3764); • 384-well Echo compound plate (Labcyte: LP-0200); • 384-well compound plate (PE: 6008590); • Bravo Tip (Agilent: 10734-202); • FLIPR Tip (Molecular Device: 9000-0764); • Plate reader FLIPR Tetra (Molecular Device); • Pipetting workstation Bravo (Agilent); • ECHO 550 (LABCYTE); • Liquid injector Multidrop Combi (ThermoFisher). […] Experimental data processing method: FLIPR Tetra was used to read and collect the fluorescence signal value (RFU). The maximum RFU value was used to calculate the percent activation data based on the readings of the Low control (DMSO control) and High control (100 nM positive compound) experimental groups {% activation rate = (RFUsample - RFUlow control) / (RFUhigh control - RFUlow control)×100}. […]

With `[2H]C([2H])(c1ccc(-c2ccccc2S(=O)(=O)Nc2noc(C)c2Cl)c(COCC)c1)N1C(=O)C2(CCCC2)N=C1CCCC` [Example 2, 4'-((2-Butyl-4-oxo-1,3-diazaspiro[4.4]non-1-en-3-yl)methyl-d2)-N-(4-chloro-5-methylisoxazol-3-yl)-2'-(ethoxymethyl)-[1,1'-biphenyl]-2-sulfonamide] as the compound, how does the IC50 read?
The IC50 was 6.2 nM.

`CCCCC1=NC2(CCCC2)C(=O)N1Cc1ccc(-c2ccccc2S(=O)(=O)Nc2noc(C)c2Cl)c(COCC)c1` [Example 8, 2-[4-[(2-Butyl-4-oxo-1,3-diazaspiro[4.4]non-1-en-3-yl)methyl]-2-(ethoxymethyl)phenyl]-N-(4-chloro-5-methyl-isoxazol-3-yl)benzenesulfonamide] was tested. Which IC50 did it give?
Its IC50 is 3.2 nM.
